Results reported in PMC12192727, “Strategies to Develop Na,K-ATPase-α4 Inhibitors as Male Contraceptives” (International Journal of Molecular Sciences, 2025).
Like-named read-outs stand apart in the source and are kept apart here. Marks after values point to notes of the source that are not given here.

Columns and labels:
MDCK cells = assay: MDCK cell permeability; details: MDCK cell line, 0.5% BSA
MDCK cell permeability = details: dog, MDCK
in vitro = details: dog, MDCK, MDCK cells
[1] = test system: Salmonella typhimurium strains TA98 and TA100; assay: Mini Ames test; assay type: cell-based; details: with and without S9
Procedure: The mutagenic potential of 45 was evaluated using the Mini Ames test, which measures reverse mutations at the histidine locus in Salmonella typhimurium strains TA98 and TA100. The assay was conducted with and without exogenous metabolic activation (β-naphthoflavone/phenobarbital-induced rat liver S9). The experimental details are reported in the Supporting Information).

[2] = Metabolic stability in mouse hepatocytes; assay type: in vitro ADME; details: mouse hepatocytes
Procedure: The in vitro metabolic half-life (t1/2) is calculated using the slope of the log−linear regression from the percentage of the parent compound remaining versus the time relationship (κ). The experimental details are reported in the Supporting Information (Tables S6 and S7).

hERG channel [3] = target: T1, hERG channel (Homo sapiens, UniProt Q12809)
[4] = In vivo pharmacokinetic study; set-up: species or system CD-1 mice; details: for Plasma concentration (mean): BLOQ = 0.5 ng/mL; for MRT inf: read-out: MRTInf_obs
Procedure: Male CD-1 mice (approximately 6–8 weeks old, weighing 20–25 g, supplied by Vital River, Beijing, China) were used for the pharmacokinetic studies. Each mouse (n = 2) received either a bolus intravenous injection via the tail vein or oral gavage administration of the test compound. The formulation consisted of 20% HP-b-CD in PBS (pH 7.4), administered at a dose level of 10 mg/kg. The intravenous dose volume was 5 mL/kg, while the oral dose volume was 10 mL/kg. […] At the end of the study, the mice were euthanized by the inhalation of rising carbon dioxide concentrations. Samples were centrifuged at 4000× g for 5 min at 4 °C to obtain plasma. The plasma samples were stored at −75 ± 15 °C before analysis. Plasma samples were analyzed using the LC/MS/MS method. WinNonlin (PhoenixTM, version 8.3) software was employed for pharmacokinetic analysis calculations. The experimental details are reported in the Supporting Information. […]
Snap Shot PK of 45 in CD1-Mice
Formulations IV 20% HP-b-CD in PBS
(1 picture or pasted object on this page, not shown here)
Dosing Solutions: IV 2 mg/mL
IV&PO Plasma: 0 .5, 1, 3, and 5 h
Blood Sampling @ post dose
Mobile Phase A 5% Acetonitrile in Water (0.1%Formic acid)
Quantification Internal Standard Method
10 uL of plasma sample + 5 uL of blank solution +
200 uL of acetonitrile for PPE (protein precipitation
1. BLOQ = 0.5 ng/mL for plasma
3. PK parameters were estimated by non-compartmental model using WinNonlin 8.3
4. The bioavailability (F%) was calculated as following: […]

Caco-2 cell permeability = assay type: in vitro ADME, human; details: human
Procedure: (§1) The in vitro permeability and potential to be transported by P-gp (P-glycoprotein) were determined in a Caco-2 or MDCK cell line. Values are reported for a mass recovery > 60%. The efflux ratio was determined as follows: P^app(B-A)/Papp(A-B). The experimental details are reported in the Supporting Information (Tables S2–S5).
(§2) The recovery can be determined using the following equation:
(§3) Recovery%=(VA×[drug]acceptor+VD×[drug]donor)/(VD×[drug]initial, donor)
(§4) Where VA is the volume (in mL) in the acceptor well (0.235 mL for Ap→Bl flux, and 0.075 mL for
(§5) Bl→Ap), VD is the volume (in mL) in the donor well (0.075 mL for Ap→Bl flux, and 0.235 mL for
(§6) The leakage of Lucifer Yellow, in unit of percentage (%), can be calculated using the following
(§7) %LY leakage = 100×[LY]acceptor×0.3/([LY]donor×0.1+[LY]acceptor×0.3)
(§8) LY leakage of <1% is acceptable to indicate the well-qualified MDCK/ Caco-2 monolayer.
(§9) Table S5 . The Assessment of Caco-2 Cell Monolayer Integrity
(§10) The apparent permeability coefficient (Papp), Efflux ratio (ER), recovery percentage, and LY leakage percentage can be
(§11) calculated for Caco-2 Cell drug transport assays using the above equations. […]

Caco-2 cells = assay: Caco-2 cell permeability; assay type: in vitro ADME, human; details: Caco-2 cell line
Procedure: as §1, §2, §3, §4, §5, §6, §7, §8, §9, §10, §11

[5] = LogD, 1-octanol/phosphate buffer pH 7.4; assay type: physicochemical
[6] = Stability in PBS (pH 7.4); assay type: physicochemical; details: PBS pH 7.4, compound remaining after 60 min
Procedure: Solubility, permeability, compound stability, metabolic stability, and toxicity studies were performed at Pharmaron (Waltham, MA, USA).

hERG channel [7] = target: T1, hERG channel; assay: hERG inhibition manual patch-clamp assay (HEK293)
[8] = male, CD-1, mouse, plasma, CD1 mice, IV 10 mg/kg
[9] = male, CD-1, mouse, plasma, CD1 mice, PO 10 mg/kg
[10] = male, CD-1, mouse, plasma, IV 10 mg/kg
[11] = male, CD-1, mouse, plasma, PO 10 mg/kg
[12] = male, CD-1, mouse, CD1 mice, IV 10 mg/kg, plasma

T1 sequence (Q12809 whole entry): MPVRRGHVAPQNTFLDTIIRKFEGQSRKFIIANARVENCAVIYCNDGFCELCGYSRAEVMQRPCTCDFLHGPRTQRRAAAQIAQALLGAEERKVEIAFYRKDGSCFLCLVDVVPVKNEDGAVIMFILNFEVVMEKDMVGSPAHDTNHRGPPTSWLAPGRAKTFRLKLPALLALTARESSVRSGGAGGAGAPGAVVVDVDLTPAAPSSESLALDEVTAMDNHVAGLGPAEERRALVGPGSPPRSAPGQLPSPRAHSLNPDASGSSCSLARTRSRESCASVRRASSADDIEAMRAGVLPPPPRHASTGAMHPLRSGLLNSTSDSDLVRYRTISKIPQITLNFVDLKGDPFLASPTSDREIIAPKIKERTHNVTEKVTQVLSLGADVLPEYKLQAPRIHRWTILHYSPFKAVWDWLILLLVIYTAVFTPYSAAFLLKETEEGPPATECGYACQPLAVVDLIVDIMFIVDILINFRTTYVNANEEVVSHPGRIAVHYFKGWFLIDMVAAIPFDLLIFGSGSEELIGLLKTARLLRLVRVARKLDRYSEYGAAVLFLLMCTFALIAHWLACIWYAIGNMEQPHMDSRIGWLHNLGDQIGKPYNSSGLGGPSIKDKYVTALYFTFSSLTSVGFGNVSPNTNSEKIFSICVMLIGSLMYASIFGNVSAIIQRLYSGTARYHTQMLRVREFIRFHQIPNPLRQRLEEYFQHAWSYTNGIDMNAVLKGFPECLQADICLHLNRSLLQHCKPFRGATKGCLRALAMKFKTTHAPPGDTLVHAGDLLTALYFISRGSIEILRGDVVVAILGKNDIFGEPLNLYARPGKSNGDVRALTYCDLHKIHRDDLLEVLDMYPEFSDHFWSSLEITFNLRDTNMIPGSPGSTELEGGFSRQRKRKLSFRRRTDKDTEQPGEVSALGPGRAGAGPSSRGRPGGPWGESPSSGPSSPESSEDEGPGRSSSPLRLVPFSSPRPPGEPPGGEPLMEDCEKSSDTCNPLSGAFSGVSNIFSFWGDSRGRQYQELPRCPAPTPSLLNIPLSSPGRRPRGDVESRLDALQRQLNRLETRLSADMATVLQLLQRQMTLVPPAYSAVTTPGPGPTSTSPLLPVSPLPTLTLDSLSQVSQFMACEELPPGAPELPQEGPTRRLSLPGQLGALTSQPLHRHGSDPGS

For C[C@]12CC[C@H]3[C@@H](CC=C4C[C@@H](O)CC[C@@]43C)[C@@H]1CC[C@@H]2c1cn(Cc2ccccc2)nn1 [Compound 13, (3S,8S,9S,10R,13S,14S,17S)-17-(1-Benzyl-1H-1,2,3-triazol-4-yl)-10,13-dimethyl-2,3,4,7,8,9,10,11,12,13,14,15,16,17-tetradecahydro-1H-cyclopenta[a]phenanthren-3-ol], the “Permeability Papp (A-B)” value (MDCK cells) was “poor”, the Papp B→A (MDCK cell permeability) was 7.8 nm/s and the efflux ratio (MDCK cell permeability) was 1.24. It also gave a Papp A→B (MDCK cell permeability; Papp (A-B), MDCK cells, BSA 0% for controls, 0.5% for 13) of 6.3 nm/s, a Papp A→B (MDCK cell permeability; Permeability Papp (A-B), MDCK cell line, 0.5% BSA) of 6 nm/s and a recovery (in vitro; Recovery (%) AP-BL) of 70.2%. The recovery (in vitro; Recovery (%) BL-AP) was 88.1%.
For CC12CCC(=O)C=C1CCCC2n1cc(-c2ccccc2)nn1 (stereo not drawn) [Compound 45, 4a-Methyl-5-(4-phenyl-1H-1,2,3-triazol-1-yl)-4,4a,5,6,7,8-hexahydronaphthalen-2(3H)-one], the “Mini Ames” value [1] was “Mini Ames ^e: negative”, the hepatocyte CLint at 1 μM ([2]; read-out: In vitro Clint) was 77.1 µL/min/1e6 cells and the CLint scaled at 1 µM ([2]; read-out: Scale-up Clint) was 54.7 L/h/kg. For the same molecule, the half-life at 1 µM ([2]; mouse, hepatocytes, read-out: In vitro T1/2) was 18 min, the “hERG IC50” value (hERG channel [3]) was “weak inhibitor” and the AUC_%Extrap_obs ([4]; CD1 mice, IV 10 mg/kg) was 0.250%. The AUClast/D ([4]; CD1 mice, IV 10 mg/kg) was 55.9 kg·ng·h/mL/mg, the Vss_obs ([4]; CD1 mice, IV 10 mg/kg (supplement)) was 1.10 L/kg and the AUC_%Extrap_obs ([4]; CD1 mice, PO 10 mg/kg) was 3.43%. For the same molecule, the AUClast/D ([4]; CD1 mice, PO 10 mg/kg) was 7.43 kg·ng·h/mL/mg, the “F% (oral bioavailability)” value ([4]; CD1 mice, PO 10 mg/kg, 10 mg/kg) was 13.7% and the “Plasma concentration (mean)” value ([4]; IV 10 mg/kg, 3 h) was “BLOQ”. For the same molecule, the “Plasma concentration (mean)” value ([4]; IV 10 mg/kg, 5 h) was “BLOQ”, the bioavailability ([4]; male, CD-1, mouse, plasma, po, 10 mg/kg, CD1 mice, PO 10 mg/kg, read-out: F% (oral bioavailability)) was 14% and the AUC(0-inf) [4, 8] was 0.561 µg·h/mL. It also gave an AUC(0-t) [4, 8] of 0.559 µg·h/mL, a half-life [4, 8] of 7.5 min and a Vd ([4]; male, CD-1, mouse, plasma, CD1 mice, IV 10 mg/kg (Table 5), read-out: Vss) of 1.1 L/kg. The MRT inf [4, 8] was 3.7 min, the AUC(0-inf) [4, 9] was 0.077 µg·h/mL and the AUC(0-t) [4, 9] was 0.0743 µg·h/mL. It also gave a Tmax [4, 9] of 30 min, a half-life [4, 9] of 64.2 min and an MRT inf [4, 9] of 67.8 min. The concentration at 0.5 h [4, 10] was 0.124 µg/mL, the concentration at 1 h [4, 10] was 0.00776 µg/mL and the concentration at 0.5 h [4, 11] was 0.0797 µg/mL. For the same molecule, the concentration at 1 h [4, 11] was 0.0228 µg/mL, the concentration at 3 h ([4]; male, CD-1, mouse, plasma, PO 10 mg/kg, 3 h) was 0.00214 µg/mL and the concentration at 5 h ([4]; male, CD-1, mouse, plasma, PO 10 mg/kg, 5 h) was 0.00171 µg/mL. For the same molecule, the clearance ([4]; male, CD-1, mouse, plasma, mice, intravenous 10 mg/kg, read-out: clearance rate) was 17.8 L/h/kg, the C0 [4, 12] was 1.98 µg/mL and the Cmax [4, 12] was 0.124 µg/mL. It also gave a Cmax ([4]; male, CD-1, mouse, CD1 mice, PO 10 mg/kg, plasma) of 0.0797 µg/mL, a Papp A→B (Caco-2 cell permeability; Caco-2, Caco-2 cell line, read-out: Permeability Papp (A-B)) of 240 nm/s and a Papp A→B (Caco-2 cell permeability; Caco-2, Caco-2 cells, read-out: Papp (A-B)) of 240 nm/s. For the same molecule, the recovery (Caco-2 cell permeability; Caco-2, Caco-2 cells, read-out: Recovery (%) AP-BL) was 64.3%, the recovery (Caco-2 cell permeability; Caco-2, Caco-2 cells, read-out: Recovery (%) BL-AP) was 77.9% and the Papp B→A (Caco-2 cell permeability; Caco-2 cells) was 118 nm/s. For the same molecule, the efflux ratio (Caco-2 cell permeability; Caco-2 cells, Papp(B-A)/Papp(A-B)) was 0.49, the “Permeability Papp (A-B)” value (Caco-2 cells) was “good” and the logD [5] was 2.66. For the same molecule, the Stability [6] was “Stability: 96% ^a” and the IC50 (hERG channel [7]) was > 30 µM.
